Experimental data as given in ChEMBL document CHEMBL4017527, “Are We There Yet? Applying Thermodynamic and Kinetic Profiling on Embryonic Ectoderm Development (EED) Hit-to-Lead Program” (J Med Chem, 2017).

What was measured:
Polycomb protein EED [1] = target: T1, Polycomb protein EED (Homo sapiens, UniProt O75530); test: Binding affinity to His tagged human EED (77 to 441 residues) expressed in Escherichia coli BL21(DE3)-T1R by ITC method; settings: read-out: Kd(app)
Polycomb protein EED [2] = target: T1, Polycomb protein EED; test: Binding affinity to GST tagged EED (unknown origin) after 1 hr by OG(488) probe based TR-FRET assay
Polycomb protein EED [3] = target: T1, Polycomb protein EED; test: Binding affinity to biotin labelled human EED (78 to 441 residues) by SPR assay

T1 sequence (O75530 whole entry, the tested form may be a part): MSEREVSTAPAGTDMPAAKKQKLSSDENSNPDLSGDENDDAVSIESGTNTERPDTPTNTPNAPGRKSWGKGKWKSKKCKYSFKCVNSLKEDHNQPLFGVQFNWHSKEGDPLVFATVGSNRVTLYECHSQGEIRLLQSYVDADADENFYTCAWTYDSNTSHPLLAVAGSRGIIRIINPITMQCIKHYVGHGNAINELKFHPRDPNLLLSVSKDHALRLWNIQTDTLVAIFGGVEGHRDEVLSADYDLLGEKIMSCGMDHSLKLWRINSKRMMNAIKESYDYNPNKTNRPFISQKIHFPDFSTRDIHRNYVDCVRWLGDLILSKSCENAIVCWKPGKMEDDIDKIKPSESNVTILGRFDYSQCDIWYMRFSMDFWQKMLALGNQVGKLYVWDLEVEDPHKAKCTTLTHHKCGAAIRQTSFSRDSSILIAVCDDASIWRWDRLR

Compound | Kd (Polycomb protein EED [1]) | Ki (Polycomb protein EED [2]) | Kd (Polycomb protein EED [3])
CC(=O)N1CCN(c2ccc([C@H]3CN(C4CCc5cccc(F)c54)C[C@@H]3N(C)C)cc2)CC1 (some centres not stated) | 2100 nM | 0.7 nM | 4 nM
CN(C)c1cc(N2CCc3ccccc3C2)ccn1 | 2500 nM | 680 nM | –
CN(C)[C@@H]1CN(Cc2c(F)cccc2Br)C[C@H]1c1cn(C)c2ccccc12 | 370 nM | 80 nM | 3100 nM
CC(=O)N1CCN(c2ccc([C@H]3CN([C@@H]4CCc5cccc(F)c54)C[C@@H]3N(C)C)cc2)CC1 | 1140 nM | 3 nM | 100 nM
Cc1cccc(F)c1CN1C[C@H](c2ccc(S(C)(=O)=O)cc2)[C@@H](N(C)C)C1 | 30 nM | 10 nM | 140 nM
COc1ccccc1N1CCN(C(=O)c2ccccc2S(C)(=O)=O)CC1 | – | 1500 nM | 13400 nM
CN(C)[C@H]1CN(Cc2c(F)cccc2Br)C[C@@H]1c1cn(C)c2ccccc12 | 90 nM | 10 to 20 nM | 150 to 310 nM
CC(=O)N1CCN(c2ccc([C@@H]3CN([C@@H]4CCc5cccc(F)c54)C[C@H]3N(C)C)cc2)CC1 | 110 nM | 18 nM | 200 nM
COc1ccc([C@H]2CN(Cc3c(C)cccc3F)C[C@@H]2N(C)C)cc1OC | – | 12 nM | 210 nM
COc1ccc([C@H]2CN(Cc3c(F)cccc3Br)C[C@@H]2N(C)C)cc1OC | – | 18 nM | 300 nM
CN(C)[C@H]1CN([C@H]2CCc3cccc(F)c32)C[C@@H]1c1cn(C)c2ccccc12 | 10 nM | – | –
CC(=O)N1CCN(c2ccc([C@H]3CN(Cc4c(C)cccc4F)C[C@@H]3N(C)C)cc2)CC1 | – | 3 nM | 20 nM
CC(=O)N1CCN(c2ccc([C@H]3CN([C@H]4CCc5cccc(F)c54)C[C@@H]3N(C)C)cc2)CC1 | 10 nM | 0.3 nM | 1 nM
CN(C)[C@H]1CN(Cc2c(F)cccc2Br)C[C@@H]1c1ccccc1 | – | 110 nM | 4800 nM
Cc1cccc(F)c1CN1C[C@H](c2cn(C)c3ccccc23)[C@@H](N(C)C)C1 | 6 nM | – | –
CC(=O)N1CCN(c2ccc([C@@H]3CN([C@H]4CCc5cccc(F)c54)C[C@H]3N(C)C)cc2)CC1 | 2200 nM | 42 nM | 290 nM
CN(C)[C@H]1CN(Cc2c(F)cccc2Br)C[C@@H]1c1ccccn1 | – | 450 nM | 9800 nM
Cc1cccc(F)c1CN1C[C@@H](N(C)C)[C@H](c2ccc(S(C)(=O)=O)cc2)C1 | 940 nM | 290 nM | 1400 nM
CN(C)[C@H]1CN(Cc2c(F)cc(O)cc2Br)C[C@@H]1c1cn(C)c2ccccc12 | – | 8 nM | 61 nM
COc1ccc([C@H]2CN(C3CCc4cccc(F)c43)C[C@@H]2N(C)C)cc1OC (some centres not stated) | – | 3 nM | 43 nM
CN(C)[C@H]1CN(Cc2c(F)cccc2Br)C[C@@H]1c1ccc(O)cc1 | – | 91 nM | 2600 nM
c1ccc2c(c1)CCN(c1ccncc1)C2 | 5200 nM | 950 nM | 22000 nM
